For 1 compound, MIC and RFU results are on record in ChEMBL document CHEMBL4834440, “2,2,2-trifluoro-1-(1,4,5,6-tetrahydropyridin-3-yl)ethanone derivative as efflux pump inhibitor in Mycobacterium tuberculosis” (Bioorg Med Chem Lett, 2021).

Converted amounts (≈) assume the structure as drawn.

Assay [1] deals with Mycobacterium tuberculosis. In words: Antimycobacterial activity against multidrug-resistant Mycobacterium tuberculosis FURG-2 assessed as inhibition of bacterial growth measured by Resazurin microtitre assay. Type of assay: functional.
Assay [2] has as its system Mycobacterium tuberculosis H37Rv. As to the kind of experiment: Inhibition of Multidrug resistance efflux pump in Mycobacterium tuberculosis H37Rv assessed as relative final fluorescence at 6.26 ug/ml measured by ethidium bromide accumulation assay. Conditions: dose 6.26 µg/ml.
Assay [3] concerns Mycobacterium tuberculosis. In words: Inhibition of Multidrug resistance efflux pump in Mycobacterium tuberculosis FURG-2 assessed as relative final fluorescence at 3.12 ug/ml measured by ethidium bromide accumulation assay. Conditions: dose 3.12 µg/ml.
Assay [4] relates to Mycobacterium tuberculosis H37Rv. In words: Inhibition of Multidrug resistance efflux pump in Mycobacterium tuberculosis H37Rv assessed as reduction in rifampicin MIC at 1.56 ug/ml measured by ethidium bromide accumulation assay. The settings on record: dose 1.56 µg/ml.

Regarding `O=C(C1=CN(CCc2ccccc2)C(NCCc2ccccc2)CC1)C(F)(F)F` (centres undefined), the values for the MIC in assay [1] and in assay [4] were 12.5 µg/mL (≈ 31.1 µM) and 16 µg/mL, respectively. Further, the RFU in assay [2] is -0.2; in assay [3], 1.07.
